Assay results from ChEMBL document CHEMBL1139033, “Design, synthesis, and structure-activity relationship of novel thiophene derivatives for beta-amyloid plaque imaging” (Bioorg Med Chem Lett, 2006).

Target: Amyloid-beta precursor protein (Homo sapiens, UniProt P05067)
Assay: Displacement of [125I]IMPY from beta amyloid plaque in brain homogenates
Type: tissue-based

Sequence of Amyloid-beta precursor protein (P05067 whole entry): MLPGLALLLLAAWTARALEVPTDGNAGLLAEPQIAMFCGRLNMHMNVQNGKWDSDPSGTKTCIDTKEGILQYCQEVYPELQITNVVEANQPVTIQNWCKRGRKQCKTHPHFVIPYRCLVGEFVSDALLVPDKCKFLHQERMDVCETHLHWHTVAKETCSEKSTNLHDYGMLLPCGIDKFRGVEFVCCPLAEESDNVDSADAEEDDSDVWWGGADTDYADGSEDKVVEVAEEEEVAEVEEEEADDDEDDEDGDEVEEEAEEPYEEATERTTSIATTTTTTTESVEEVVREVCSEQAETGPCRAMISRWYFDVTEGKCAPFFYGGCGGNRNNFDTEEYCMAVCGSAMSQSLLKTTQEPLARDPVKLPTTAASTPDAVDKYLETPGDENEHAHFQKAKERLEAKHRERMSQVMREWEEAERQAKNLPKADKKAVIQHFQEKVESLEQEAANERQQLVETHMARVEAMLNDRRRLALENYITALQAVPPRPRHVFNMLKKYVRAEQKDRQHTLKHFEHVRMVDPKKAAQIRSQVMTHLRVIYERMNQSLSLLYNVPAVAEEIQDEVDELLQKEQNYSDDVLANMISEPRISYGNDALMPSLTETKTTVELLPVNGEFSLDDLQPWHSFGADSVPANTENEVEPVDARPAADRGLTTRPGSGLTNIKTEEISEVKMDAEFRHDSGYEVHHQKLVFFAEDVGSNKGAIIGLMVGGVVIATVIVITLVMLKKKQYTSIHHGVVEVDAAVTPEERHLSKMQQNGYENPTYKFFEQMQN

Point of comparison: `Nc1ccc(-c2ccc(-c3ccc(N)cc3)s2)cc1`, Ki 6.1 nM. Against it:
- O=[N+]([O-])c1ccc(-c2ccc(-c3ccc([N+](=O)[O-])cc3)s2)cc1 — 30-fold higher, 185 nM
- COc1ccc(-c2ccc(-c3ccc(NCCF)cc3)s2)cc1 — 3.5-fold higher, 21.5 nM
- COc1ccc(-c2ccc(-c3ccc(N)cc3)s2)cc1 — within 1.5-fold, 5.6 nM
- Oc1ccc(-c2ccc(-c3ccc(O)cc3)s2)cc1 — 1.5-fold lower, 4 nM
- COc1ccccc1-c1ccc(-c2ccccc2OC)s1 — 100-fold higher, 625 nM
- COc1ccc(-c2ccc(-c3ccc([N+](=O)[O-])cc3)s2)cc1 — 3-fold higher, 18.5 nM
- CNc1ccc(-c2ccc(-c3ccc(O)cc3)s2)cc1 — 5.1-fold higher, 31.2 nM
- Nc1ccc(-c2ccc(-c3ccc(O)cc3)s2)cc1 — 1.6-fold higher, 9.6 nM
- Oc1ccc(-c2ccc(-c3ccc(NCCF)cc3)s2)cc1 — 1.6-fold lower, 3.9 nM
- CN(C)c1ccc(-c2ccc(-c3ccc(O)cc3)s2)cc1 — within 1.5-fold, 7.5 nM
- COc1ccc(-c2ccc(-c3ccc(OC)cc3)s2)cc1 — 18-fold higher, 108 nM
- COc1ccc(-c2ccc(-c3ccc(O)cc3)s2)cc1 — the same, 6.1 nM
- CSc1ccc(-c2ccc(-c3ccc(SC)cc3)s2)cc1 — higher, > 1000 nM
- COc1ccc(-c2ccc(-c3ccc(N(C)C)cc3)s2)cc1 — 82-fold higher, 500 nM
